In PubChem BioAssay AID248 (DTP/NCI, 2004):
Inconclusive results and toxic doses are left out. Cut-off read from the data, not from the text of the source: active = T/C of 150% or more; inactive = T/C below 125%.

Test system: L1210 leukemia ip in BDF1 mice, survival T/C
Assay: NCI In Vivo Anticancer Drug Screen. Data for tumor model L1210 Leukemia (intraperitoneal) in B6D2F1 (BDF1) mice
Conditions: endpoint: mean survival time, higher = longer survival
Procedure, shortened: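 Read-out is survival time, reported as the treated-group measurement over the vehicle-control measurement.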

Measured: T/C

CC(=O)Oc1ccc(C)cc1
inactive: dose: 50.0 mg/kg/injection, schedule: Q01DX009 (ip), vehicle: Klucel (hydroxypropylcellulose) (HPC) 94 % of control | dose: 100.0 mg/kg/injection, schedule: Q01DX009 (ip), vehicle: Klucel (hydroxypropylcellulose) (HPC) 110 % of control | dose: 100.0 mg/kg/injection, schedule: Q04DX003 (ip), vehicle: Klucel (hydroxypropylcellulose) (HPC) 100 % of control | dose: 200.0 mg/kg/injection, schedule: Q01DX009 (ip), vehicle: Klucel (hydroxypropylcellulose) (HPC) 107 % of control | dose: 200.0 mg/kg/injection, schedule: Q04DX003 (ip), vehicle: Klucel (hydroxypropylcellulose) (HPC) 104 % of control

CC1C(C)(C)P(=O)(n2nnc3ccccc32)C1(C)C (stereo not given)
inactive: dose: 100.0 mg/kg/injection, schedule: Q04DX003 (ip), vehicle: saline 105 % of control | dose: 200.0 mg/kg/injection, schedule: Q04DX003 (ip), vehicle: saline 97 % of control | dose: 400.0 mg/kg/injection, schedule: Q04DX003 (ip), vehicle: saline 94 % of control

COC(=O)c1c(C(=O)N(C)C)n[nH]c1C1OCC2OC(C)(C)OC21 (stereo not given)
inactive: dose: 100.0 mg/kg/injection, schedule: Q01DX005 (ip), vehicle: saline 100 % of control | dose: 200.0 mg/kg/injection, schedule: Q01DX005 (ip), vehicle: saline 100 % of control

COc1ccc(CSC(=S)Nc2ccc(Cl)c(Cl)c2)cc1OC
inactive: dose: 37.5 mg/kg/injection, schedule: Q04DX003 (ip), vehicle: saline 101 % of control | dose: 75.0 mg/kg/injection, schedule: Q04DX003 (ip), vehicle: saline 93 % of control | dose: 150.0 mg/kg/injection, schedule: Q04DX003 (ip), vehicle: saline 101 % of control

COCCCN=C(N)c1ccc(NC(=O)c2ccc(C(=O)Nc3ccc(C(N)=NCCCOC)cc3)c(Cl)c2)cc1
active: dose: 7.5 mg/kg/injection, schedule: Q01DX Z (ip), vehicle: saline 171 % of control
inactive: dose: 0.47 mg/kg/injection, schedule: Q01DX Z (ip), vehicle: saline 92 % of control | dose: 0.94 mg/kg/injection, schedule: Q01DX Z (ip), vehicle: saline 91 % of control | dose: 1.88 mg/kg/injection, schedule: Q01DX Z (ip), vehicle: saline 94 % of control | dose: 3.75 mg/kg/injection, schedule: Q01DX Z (ip), vehicle: saline 111 % of control | dose: 7.5 mg/kg/injection, schedule: Q01DX Z (oral), vehicle: saline 103 % of control | dose: 15.0 mg/kg/injection, schedule: Q01DX Z (ip), vehicle: saline 89 % of control | dose: 15.0 mg/kg/injection, schedule: Q01DX Z (oral), vehicle: saline 111 % of control | dose: 30.0 mg/kg/injection, schedule: Q01DX Z (oral), vehicle: saline 94 % of control | dose: 60.0 mg/kg/injection, schedule: Q01DX Z (oral), vehicle: saline 102 % of control

O=C1C(Br)=C(Br)C(=O)c2ccccc21
inactive: dose: 50.0 mg/kg/injection, schedule: Q01DX001 (ip), vehicle: saline 106 % of control | dose: 100.0 mg/kg/injection, schedule: Q01DX001 (ip), vehicle: saline 110 % of control

O=C(NCCCCNC(=O)Nc1cccc(C2=NCCCN2)c1)Nc1cccc(C2=NCCCN2)c1
inactive: dose: 0.65 mg/kg/injection, schedule: Q01DX Z (ip), vehicle: carboxymethylcellulose (CMC) 97 % of control | dose: 1.3 mg/kg/injection, schedule: Q01DX Z (ip), vehicle: carboxymethylcellulose (CMC) 97 % of control

CC(=O)Nc1nc(C)c(CCCN(Cc2ccccc2)C(C)=O)c(=O)[nH]1
inactive: dose: 75.0 mg/kg/injection, schedule: Q01DX001 (ip), vehicle: Klucel (hydroxypropylcellulose) (HPC) 96 % of control | dose: 150.0 mg/kg/injection, schedule: Q01DX001 (ip), vehicle: Klucel (hydroxypropylcellulose) (HPC) 99 % of control | dose: 300.0 mg/kg/injection, schedule: Q01DX001 (ip), vehicle: Klucel (hydroxypropylcellulose) (HPC) 92 % of control

CC1(C)CN(C(C)(C)C)CC(C)(C)C(O)C1=O (stereo not given)
inactive: dose: 100.0 mg/kg/injection, schedule: Q01DX001 (ip), vehicle: saline with Tween-80 96 % of control | dose: 200.0 mg/kg/injection, schedule: Q01DX001 (ip), vehicle: saline with Tween-80 91 % of control | dose: 400.0 mg/kg/injection, schedule: Q01DX001 (ip), vehicle: saline with Tween-80 93 % of control

CCOP(=O)(Nc1ccc2c(c1)/C(=N/NC(N)=S)c1ccccc1-2)OCC
inactive: dose: 50.0 mg/kg/injection, schedule: Q01DX001 (ip), vehicle: carboxymethylcellulose (CMC) 100 % of control | dose: 100.0 mg/kg/injection, schedule: Q01DX001 (ip), vehicle: carboxymethylcellulose (CMC) 94 % of control | dose: 200.0 mg/kg/injection, schedule: Q01DX001 (ip), vehicle: carboxymethylcellulose (CMC) 96 % of control | dose: 400.0 mg/kg/injection, schedule: Q01DX001 (ip), vehicle: carboxymethylcellulose (CMC) 89 % of control

NC1CC[N-]CC1.NC1CC[N-]CC1.NC1CC[N-]CC1.NC1CC[N-]CC1.[Cl][Rh][Cl]
inactive: dose: 6.25 mg/kg/injection, schedule: Q01DX009 (ip), vehicle: saline with Tween-80 100 % of control | dose: 12.5 mg/kg/injection, schedule: Q01DX009 (ip), vehicle: saline with Tween-80 96 % of control | dose: 25.0 mg/kg/injection, schedule: Q01DX009 (ip), vehicle: saline with Tween-80 104 % of control
